Test results reported in PubChem BioAssay (NCI).
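Test compounds were applied to cells in 96-well plates for 48 hours at 5 doses. GI50 = concentration required for 50% inhibition of growth. TGI: concentration producing complete growth inhibition.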

How the values were obtained:
Test in all cases: NCI tumour cell line growth inhibition, 48 h; in the data active = GI50 below about 0.43 µM; inactive = the rest
A498 renal = tested on: A498 renal
SK-MEL-2 melanoma = tested on: SK-MEL-2 melanoma
K-562 leukemia = tested on: K-562 leukemia
EKVX NSCLC = tested on: EKVX NSCLC
HL-60(TB) leukemia = tested on: HL-60(TB) leukemia
MDA-MB-435 = tested on: MDA-MB-435
MCF7 breast = tested on: MCF7 breast
MALME-3M melanoma = tested on: MALME-3M melanoma
A549 NSCLC = tested on: A549 NSCLC
OVCAR-8 ovarian = tested on: OVCAR-8 ovarian
SNB-19 CNS = tested on: SNB-19 CNS
SW-620 colon = tested on: SW-620 colon
U251 CNS = tested on: U251 CNS
CCRF-CEM leukemia = tested on: CCRF-CEM leukemia
SF-539 CNS = tested on: SF-539 CNS
HS 578T breast = tested on: HS 578T breast
HOP-62 NSCLC = tested on: HOP-62 NSCLC
SN12C renal = tested on: SN12C renal
KM12 colon = tested on: KM12 colon
OVCAR-5 ovarian = tested on: OVCAR-5 ovarian
HCT-116 colon = tested on: HCT-116 colon
LOX IMVI melanoma = tested on: LOX IMVI melanoma
SK-OV-3 ovarian = tested on: SK-OV-3 ovarian
HCT-15 colon = tested on: HCT-15 colon
ACHN renal = tested on: ACHN renal
UACC-62 melanoma = tested on: UACC-62 melanoma
NCI-H23 lung = tested on: NCI-H23 lung
DU-145 prostate = tested on: DU-145 prostate
MDA-MB-231 breast = tested on: MDA-MB-231 breast
NCI-H226 lung = tested on: NCI-H226 lung
SF-268 CNS = tested on: SF-268 CNS
UO-31 renal = tested on: UO-31 renal
UACC-257 melanoma = tested on: UACC-257 melanoma
SNB-75 CNS = tested on: SNB-75 CNS
M14 melanoma = tested on: M14 melanoma
RXF 393 renal = tested on: RXF 393 renal
TK-10 renal = tested on: TK-10 renal
NCI-H460 lung = tested on: NCI-H460 lung
OVCAR-4 ovarian = tested on: OVCAR-4 ovarian
NCI-H522 lung = tested on: NCI-H522 lung
SR leukemia = tested on: SR leukemia
NCI/ADR-RES ovarian = tested on: NCI/ADR-RES ovarian
BT-549 breast = tested on: BT-549 breast
CAKI-1 renal = tested on: CAKI-1 renal
COLO 205 colon = tested on: COLO 205 colon
HCC-2998 colon = tested on: HCC-2998 colon
HT29 colon = tested on: HT29 colon
MOLT-4 leukemia = tested on: MOLT-4 leukemia
SK-MEL-5 melanoma = tested on: SK-MEL-5 melanoma
IGROV1 ovarian = tested on: IGROV1 ovarian
RPMI-8226 leukemia = tested on: RPMI-8226 leukemia
OVCAR-3 ovarian = tested on: OVCAR-3 ovarian
SF-295 CNS = tested on: SF-295 CNS
SK-MEL-28 melanoma = tested on: SK-MEL-28 melanoma
PC-3 prostate = tested on: PC-3 prostate
786-0 renal = tested on: 786-0 renal

O=C(c1ccco1)c1nc2ccc(C(F)(F)F)cc2[n+]([O-])c1C(F)(F)F
inactive: GI50 (A498 renal) 33.7 µM | GI50 (SK-MEL-2 melanoma) 87.7 µM | GI50 (K-562 leukemia) 31.3 µM | GI50 (EKVX NSCLC) 12.9 µM | GI50 (HL-60(TB) leukemia) 95.2 µM | GI50 (MDA-MB-435) > 100 µM | GI50 (MCF7 breast) 41.6 µM | GI50 (MALME-3M melanoma) 27.9 µM | GI50 (A549 NSCLC) 33.7 µM | GI50 (OVCAR-8 ovarian) 50 µM | GI50 (SNB-19 CNS) 36.4 µM | GI50 (SW-620 colon) > 100 µM | GI50 (U251 CNS) 52.6 µM | GI50 (CCRF-CEM leukemia) > 100 µM | GI50 (SF-539 CNS) 54 µM | GI50 (HS 578T breast) > 100 µM | GI50 (HOP-62 NSCLC) 33.6 µM | GI50 (SN12C renal) > 100 µM | GI50 (KM12 colon) 67.7 µM | GI50 (OVCAR-5 ovarian) > 100 µM | GI50 (HCT-116 colon) > 100 µM | GI50 (LOX IMVI melanoma) > 100 µM | GI50 (SK-OV-3 ovarian) 33.4 µM | GI50 (HCT-15 colon) > 100 µM | GI50 (ACHN renal) 54.5 µM | GI50 (UACC-62 melanoma) 43.1 µM | GI50 (NCI-H23 lung) 46.7 µM | GI50 (DU-145 prostate) 42.7 µM | GI50 (MDA-MB-231 breast) 25.4 µM | GI50 (NCI-H226 lung) 53.9 µM | GI50 (SF-268 CNS) 34.3 µM | GI50 (UO-31 renal) > 100 µM | GI50 (UACC-257 melanoma) 26.5 µM | GI50 (SNB-75 CNS) 10.6 µM | GI50 (M14 melanoma) > 100 µM | GI50 (RXF 393 renal) 22.2 µM | GI50 (TK-10 renal) 28.8 µM | GI50 (NCI-H460 lung) 44 µM | GI50 (OVCAR-4 ovarian) 10.8 µM | GI50 (NCI-H522 lung) > 100 µM | GI50 (SR leukemia) 20.8 µM | GI50 (NCI/ADR-RES ovarian) > 100 µM | GI50 (BT-549 breast) 39.4 µM | GI50 (CAKI-1 renal) 31 µM | GI50 (COLO 205 colon) 77.8 µM | GI50 (HCC-2998 colon) 85.6 µM | GI50 (HT29 colon) 29.9 µM | GI50 (MOLT-4 leukemia) > 100 µM | GI50 (SK-MEL-5 melanoma) 31.6 µM | GI50 (IGROV1 ovarian) 35.6 µM | GI50 (RPMI-8226 leukemia) 20.3 µM | GI50 (OVCAR-3 ovarian) 98.8 µM | GI50 (SF-295 CNS) 53.2 µM | GI50 (SK-MEL-28 melanoma) 23.5 µM | GI50 (PC-3 prostate) 28.7 µM | GI50 (786-0 renal) > 100 µM
99.4 µM: TGI (UACC-257 melanoma)
> 100 µM: TGI (A498 renal) | TGI (SK-MEL-2 melanoma) | TGI (K-562 leukemia) | TGI (EKVX NSCLC) | TGI (HL-60(TB) leukemia) | TGI (MDA-MB-435) | TGI (MCF7 breast) | TGI (A549 NSCLC) | TGI (OVCAR-8 ovarian) | TGI (SNB-19 CNS) | TGI (SW-620 colon) | TGI (U251 CNS) | TGI (CCRF-CEM leukemia) | TGI (SF-539 CNS) | TGI (HS 578T breast) | TGI (HOP-62 NSCLC) | TGI (SN12C renal) | TGI (KM12 colon) | TGI (OVCAR-5 ovarian) | TGI (HCT-116 colon) | TGI (LOX IMVI melanoma) | TGI (SK-OV-3 ovarian) | TGI (HCT-15 colon) | TGI (ACHN renal) | TGI (UACC-62 melanoma) | TGI (NCI-H23 lung) | TGI (DU-145 prostate) | TGI (MDA-MB-231 breast) | TGI (NCI-H226 lung) | TGI (SF-268 CNS) | TGI (UO-31 renal) | TGI (M14 melanoma) | TGI (TK-10 renal) | TGI (NCI-H460 lung) | TGI (NCI-H522 lung) | TGI (NCI/ADR-RES ovarian) | TGI (BT-549 breast) | TGI (CAKI-1 renal) | TGI (COLO 205 colon) | TGI (HCC-2998 colon) | TGI (HT29 colon) | TGI (MOLT-4 leukemia) | TGI (SK-MEL-5 melanoma) | TGI (IGROV1 ovarian) | TGI (OVCAR-3 ovarian) | TGI (SF-295 CNS) | TGI (SK-MEL-28 melanoma) | TGI (PC-3 prostate) | TGI (786-0 renal)
80 µM: TGI (RXF 393 renal)
37.8 µM: TGI (SNB-75 CNS)
93 µM: TGI (RPMI-8226 leukemia)
57.4 µM: TGI (SR leukemia)
77.2 µM: TGI (MALME-3M melanoma)
48.3 µM: TGI (OVCAR-4 ovarian)
